Measurements reported in patent US11466044B2 (WAYNE STATE UNIVERSITY, priority 2017, dated 2022).
Values after ≈ are worked out from the molar mass of the structure shown. Like-named read-outs stand apart in the source and are kept apart here.

What was measured:
E coli wild type = test: MIC by broth microdilution, wild type E coli; type: cell-based; conditions: for MIC: Escherichia coli
[1] = tested on: Klebsiella pneumonia AG215; test: MIC by broth microdilution, Klebsiella pneumonia; type: cell-based; conditions: strain AG215 Klebsiella pneumonia; for MIC: Klebsiella pneumoniae, read-out: MIC AG215 K. pneumon
P aeruginosa = test: MIC by broth microdilution, P aeruginosa isolates; type: cell-based, Pseudomonas aeruginosa; conditions: for MIC: read-out: MIC AG220 P. aerugin; for MIC50: Pseudomonas aeruginosa
[2] = tested on: Enterobacter cloacae AG290; test: MIC by broth microdilution, Enterobacter cloacae; type: cell-based; conditions: strain AG290 Enterobacter cloacae; for MIC: read-out: MIC AG290 E. cloacae
[3] = tested on: Acinetobacter baumannii pittii AG225; test: MIC by broth microdilution, Acinetobacter baumannii; type: cell-based; conditions: strain AG225 Acinetobacter baumannii pittii
M. abscessus = test: MIC by broth microdilution, M. abscessus; type: cell-based; conditions: Mycobacteroides abscessus
[4] = tested on: E coli carrying specific resistance determinants; test: MIC by broth microdilution, E coli carrying specific resistance determinants; type: cell-based; conditions: Escherichia coli
M. smegmatis SZ380 = test: MIC by broth microdilution, M. smegmatis; conditions: for MIC: Mycolicibacterium smegmatis, SZ380, read-out: MIC M. smegmatis SZ380 WT, SZ380 WT
MRSA = test: MIC by broth microdilution, MRSA isolates; type: cell-based; conditions: Table 1 (Example 2); for MIC50 MRSA AG38: strain AG38
[5] = tested on: wild type bacterial ribosomes; test: in-vitro translation assay, bacterial ribosomes; type: biochemical; conditions: bacterial ribosome; Table 3 (Example 2); read-out: IC50 Bac
Text: (§1) The antiribosomal activity of these compounds was investigated with cell-free translation assays using both wild type bacterial ribosomes and hybrid ribosomes carrying eukaryotic decoding A sites enabling the prediction of selectivity.

[6] = tested on: cytosolic ribosome (human chimeric); type: biochemical; conditions: cytosolic; Table 3 (Example 2); read-out: IC50 Cyt
Text: as §1

[7] = tested on: mitochondrial ribosome (human chimeric); type: biochemical; conditions: mitochondrial; Table 3 (Example 2); read-out: IC50 Mit
Text: as §1

[8] = ATCC25922, strain AG212 E. coli (ATCC25922), read-out: MIC AG212 E. coli
[9] = strain AG220 Pseudomonas aeruginosa ATCC27853
[10] = ATCC19977, ATCC 19977 WT, Table 5 (Example 3), read-out: MIC M. abscessus ATCC 19977 WT
[11] = read-out: MIC M. abscessus clinical isolate
[12] = read-out: MIC M. abscessus engineered Δeis2
[13] = read-out: MIC E. coli pGB2armA armA
[14] = read-out: MIC E. coli pH434 AAC(2′)-Ib
[15] = WT, Table 5 (Example 3), read-out: MIC E. coli WT

## NCC1O[C@H](O[C@@H]2C(O)[C@H](O[C@@H]3C(O)[C@H](N)CC(N)[C@H]3O[C@H]3OC(CO)[C@@H](CCCO)C(O)[C@@H]3N)O[C@@H]2CO)C(N)C(O)[C@@H]1O (some centres unmarked) [Compound 195]
E coli wild type; [8]
  MIC: 8 µg/mL (≈ 12.2 µM)
[1]
  MIC: 2 to 4 µg/mL (≈ 3.04 to 6.08 µM)
P aeruginosa; [9]
  MIC: 64 µg/mL (≈ 97.3 µM)
[2]
  MIC: 4 µg/mL (≈ 6.08 µM)
[3]
  MIC: 8 µg/mL (≈ 12.2 µM)

## CN[C@@H]1[C@@H](O)[C@@H](O[C@@H]2[C@@H](O)[C@H](O[C@H]3OC(CNCCO)=CC[C@H]3N)[C@@H](N)C[C@H]2NC(=O)[C@@H](O)CCN)OC[C@]1(C)O [PLZ, plazomicin, reference compound]
M. abscessus; [10]
  MIC: 1 µg/mL (≈ 1.69 µM)
M. abscessus; [11]
  MIC: 4 µg/mL (≈ 6.75 µM)
M. abscessus; [12]
  MIC: 1 µg/mL (≈ 1.69 µM)
[4]; read-out: MIC E. coli AG106 AAC(2′)-Ia
  MIC: 8 to 16 µg/mL (≈ 13.5 to 27 µM)
[4]; [13]
  MIC: > 128 µg/mL
[4]; [14]
  MIC: 8 µg/mL (≈ 13.5 µM)
E coli wild type; [15]
  MIC: 0.5 to 1 µg/mL (≈ 0.844 to 1.69 µM)
M. smegmatis SZ380; Table 5 (Example 3)
  MIC: 0.25 µg/mL (≈ 0.422 µM)

## CCC(O)C1OC(OC2C(N)CC(N)C(O)C2OC2OC(CO)C(OC3OC(CN)C(O)C(O)C3N)C2O)C(N)C(O)C1O (centres unmarked) [Compound 189]
E coli wild type; strain AG212 E. coli (ATCC25922)
  MIC AG212 E. coli: 8 µg/mL (≈ 12.4 µM)
[1]
  MIC AG215 K. pneumon: 2 µg/mL (≈ 3.11 µM)
P aeruginosa; [9]
  MIC AG220 P. aerugin: >64 µg/mL
MRSA
  MIC50 MRSA AG38: 4 to 8 µg/mL
[2]
  MIC AG290 E. cloacae: 2 to 4 µg/mL
[3]
  MIC AG225 A. baumannii: 4 to 8 µg/mL

## CC1CC(O)C2O[C@H](O[C@@H]3C(N)C[C@@H](N)C(O)[C@H]3O[C@@H]3O[C@H](CO)[C@H](O[C@H]4O[C@@H](CN)[C@@H](O)C(O)C4N)C3O)C(N)[C@@H](O)[C@@H]2O1 (stereo partly drawn) [Compound 109, 4-O-(2′-Amino-4′,8′-anhydro-2′,7′,9′-trideoxy-D-erythro-α-D-gluco-nonapyranosyl)-5-O-[3-O-(2,6-diamino-2,6-dideoxy-β-L-idopyranosyl)-β-D-ribofuranosyl]-2-deoxystreptamine.5AcOH]
E coli wild type; BM13 (AG06) wt, Table 2A (Example 2)
  MIC50 E coli BM13 (AG06) wt: 16 to 32 µg/mL
E coli wild type; WT, Table 3 (Example 2)
  MIC WT: 16 to 32 µg/mL
E coli wild type; pH430 WT, Table 2B (Example 2)
  MIC50 E coli pH430 WT: 16-32 μg/ml
E coli wild type; strain AG01, Table 1 (Example 2)
  MIC50 E coli AG01: 128 µg/mL (≈ 195 µM)
E coli wild type; strain AG03, Table 1 (Example 2)
  MIC50 E coli AG03: 64 to 128 µg/mL
E coli wild type; strain AG55, Table 1 (Example 2)
  MIC50 E coli AG55: 64 to 128 µg/mL
M. smegmatis SZ380; strain SZ380 Mycobacterium smegmatis
  MIC SZ380 M. smegmatis: 16 µg/mL (≈ 24.4 µM)
P aeruginosa; strain AG33, Table 1 (Example 2), read-out: MIC50 P aeruginosa AG33
  MIC50: > 128 µg/mL
P aeruginosa; strain AG86, Table 1 (Example 2), read-out: MIC50 P aeruginosa AG86
  MIC50: > 128 µg/mL
P aeruginosa; strain AG31, Table 1 (Example 2)
  MIC50 P aeruginosa AG31: >128 µg/mL
P aeruginosa; strain AG32, Table 1 (Example 2)
  MIC50 P aeruginosa AG32: >128 µg/mL
MRSA; Staphylococcus aureus, MRSA, strain AG42, read-out: MIC50 MRSA AG42
  MIC50: 16 to 32 µg/mL (≈ 24.4 to 48.8 µM)
MRSA
  MIC50 MRSA AG38: 32 µg/mL (≈ 48.8 µM)
MRSA; strain AG39
  MIC50 MRSA AG39: 32 to 64 µg/mL
MRSA; strain AG44
  MIC50 MRSA AG44: 32 µg/mL (≈ 48.8 µM)
[5]
  IC50: 0.47 µM
[6]
  IC50: 169 µM
[7]
  IC50: 193 µM

## NCC1O[C@H](O[C@@H]2C(O)[C@H](O[C@@H]3C(O)[C@H](N)CC(N)[C@H]3O[C@H]3OC(CO)[C@@H](CCO)C(O)[C@@H]3N)O[C@@H]2CO)C(N)C(O)[C@@H]1O (some centres unmarked) [Compound 197]
E coli wild type; [8]
  MIC: 2 to 4 µg/mL (≈ 3.11 to 6.21 µM)
[1]
  MIC: 1 µg/mL (≈ 1.55 µM)
P aeruginosa; [9]
  MIC: 32 µg/mL (≈ 49.7 µM)
[2]
  MIC: 1 to 2 µg/mL (≈ 1.55 to 3.11 µM)
[3]
  MIC: 2 µg/mL (≈ 3.11 µM)

## CC(=O)O.NCC1OC(OC2C(CO)OC(OC3C(O)C(N)CC(N)C3OC3OC(CO)C(O)C(O)C3O)C2O)C(N)C(O)C1O (centres unmarked) [Compound 118, 2′-Deamino-2′-hydroxy-paromomycin acetate salt]
E coli wild type; WT, Table 5 (Example 3)
  MIC E. coli WT: 32 µg/mL
M. smegmatis SZ380; SZ380 WT, Table 5 (Example 3)
  MIC M. smegmatis SZ380 WT: >128 µg/mL

## CCNC1[C@@H](OC2C(N)CC(N)[C@@H](O)[C@H]2O[C@@H]2O[C@H](CO)[C@H](O)C2O)OC(CN)[C@@H](O)[C@@H]1O (some centres unmarked) [Compound 037]
M. abscessus; [10]
  MIC: 128 µg/mL (≈ 265 µM)
M. abscessus; [11]
  MIC: > 128 µg/mL
M. abscessus; [12]
  MIC: 32 µg/mL (≈ 66.3 µM)
[4]; [13]
  MIC: 64 to 128 µg/mL (≈ 133 to 265 µM)
[4]; [14]
  MIC: 32 µg/mL (≈ 66.3 µM)
E coli wild type; [15]
  MIC: 16 to 32 µg/mL (≈ 33.2 to 66.3 µM)
M. smegmatis SZ380; Table 5 (Example 3)
  MIC: 64 µg/mL (≈ 133 µM)

## CCC[C@H]1C[C@H](N)[C@@H](O[C@@H]2C(N)C[C@@H](N)C(O)[C@H]2O[C@@H]2O[C@H](CNC=O)[C@H](O[C@H]3OC(CN)[C@@H](O)C(O)C3N)C2O)OC1CO (some centres unmarked) [Compound 190]
E coli wild type; [8]
  MIC: 16 µg/mL (≈ 24.5 µM)
[1]
  MIC: 32 µg/mL (≈ 49 µM)
P aeruginosa; [9]
  MIC: > 64 µg/mL
[2]
  MIC: 16 to 32 µg/mL (≈ 24.5 to 49 µM)
[3]
  MIC: > 64 µg/mL
